# Data as given in patent US7658928B2, “Method of vaccination comprising administering an antigen and a cathelicidin derived antimicrobial peptide” (Intercell AG, priority 2000, dated 2010).
# Columns and labels:
# [1] = system: P388D1 cells (murine monocyte-macrophage antigen presenting cell line); assay: TRANSloading assay: uptake of fluorescein-tagged antigenic peptide into P388D1 cells with carrier-peptides, flow cytometry; type: cell-based; conditions: for uptake of antigens in dendritic cells: summary statement, cells of mice
# neutrophils = conditions: Agerberth, Charo et al. 2000; De, Chen et al. 2000; cited from earlier work
# [2] = system: IFN-γ-producing specific cells (TRP-2 181-188 VYDFFVWL); assay: IFN-γ ELISpot after vaccination of mice with TRP-2 peptide plus carrier-peptide; type: in vivo, mice (C57BL/6); conditions: s.c. days 0, 7, 14, 100 μg VYDFFVWL + carrier-peptide, two weeks after 3rd vaccination, versus peptide alone or peptide plus poly-L-arginine; for IFN-γ-producing specific cells, splenocytes: FIG. 10
# Procedure: The groups of mice were injected as follows (amounts indicated/per mouse). • (1) 100 μg […] (SEQ ID NO:25) • (2) 100 μg […] (SEQ ID NO:25)+100 μg poly-L-arginine • (3) 100μ […] (SEQ ID NO:25)+[…] cathelicidin derived antimicrobial peptide (SEQ ID NO:1) • (4) 100 μg […] (SEQ ID NO:25)+500 μg bovine indolicidin (SEQ ID NO:3)
# Two weeks after the 3rd vaccination, draining (inguinal) lymph nodes and spleens were removed and […].
# tumor growth = conditions: co-injection with an appropriate peptide as a vaccine, mouse models (Schmidt, Buschle et al. 1997); cited from earlier work
# CD4+ T cells = conditions: Agerberth, Charo et al. 2000; De, Chen et al. 2000; cited from earlier work
# mast cells = mast cells (Niyonsaba, Someya et al. 2001); cited from earlier work
# [3] = system: human CD1a positive dendritic cells; assay: TRANSloading of human dendritic cells with MHC class I and MHC class II peptides by LL-37; type: cell-based
# Procedure: To compare the efficiency of peptide delivery of these diverse “carrier-peptides”, the amount of peptide uptake into APCs was monitored by incubating P388D1 cells (murine monocyte-macrophage antigen presenting cell line; purchased from ATCC (TIB-63), or human CD1a positive (derived from human HLA-A2 positive donors, CD14+ positive PBMCS) dendritic cells, for 1 h at 37° C. with a constant amount of fuorescein-tagged peptide alone or in combination with diverse “carrier-peptides” at concentrations indicated. Before analysing the cells by flow cytometry, the cells were washed extensively to remove free peptide. The relative amount of fluorescein-tagged peptide taken up by the cells was measured by flow-cytometry.
# FIG. 8a • (1) no peptide (cells alone) • (2) 2.5 μg FL-[…] (SEQ ID NO:23) (MHC class I; peptide alone) • (3) 2.5 μg FL-[…] (SEQ ID NO:23) (MHC class I)+30 μg LL-37 (SEQ ID:2)
# FIG. 8b • (1) no peptide (cells alone) • (2) 2.5 μg FL-[…] (SEQ ID NO:24) (MHC class II; peptide alone) • (3) 2.5 μg FL-[…] (SEQ ID NO:24) (MHC class II)+30 μg LL-37 (SEQ ID:2)
# [4] = system: immature and mature dendritic cells; conditions: Yang, Chen et al. 2001; cited from earlier work
# [5] = system: peripheral blood monocytes; conditions: utilizing formyl peptide receptor-like 1 (FPRL1) (De, Chen et al. 2000); cited from earlier work
substance,measurement,setting,value
"bovine dodecapeptide: bovine cathelicidin derived antimicrobial dodecapeptide, SEQ ID NO:4, linear form in Example 3 (RLCRIVVIRVCR)",pulsing effect with increasing amounts of carrier-peptide,"[1]; Example 3, FIG. 6, 2 μg FL-LFEAIEGFI + 18.75, 37.5, 75, 150 μg linear bovine dodecapeptide",increased significantly
same,uptake of antigens in dendritic cells,[1],enhance the uptake of antigens
PR-39: porcine proline-arginine-rich 39-amino-acid cathelicidin peptide (RRRPRPPYLPRPRPPPFFPPRLPPRIPPGFPPRFPPRFPGKR) [reference compound],chemotactic activity for neutrophils,neutrophils,exert chemotactic activity
NH2-ILPWKWPWWPWRR-CONH2 [bovine indolicidin],uptake of antigens in dendritic cells,[1],enhance the uptake of antigens
same,"IFN-γ-producing specific cells, lymph node cells",[2]; FIG. 9,more IFN-γ-producing specific cells
same,"IFN-γ-producing specific cells, splenocytes",[2],more IFN-γ-producing specific cells
poly-L-arginine,protection from tumor growth,tumor growth,protects animals from tumor growth
"murine cathelicidin derived antimicrobial peptide: murine cathelin-related antimicrobial peptide, SEQ ID NO:1 (SRLAGLLRKGGEKIGEKLKKIGQKIKNFFQKL)",uptake of antigens in dendritic cells,[1],enhance the uptake of antigens
same,"IFN-γ-producing specific cells, splenocytes",[2],more IFN-γ-producing specific cells
poly-L-lysine,protection from tumor growth,tumor growth,protects animals from tumor growth
"LL-37: human cathelicidin derived antimicrobial peptide, C-terminal domain of hCAP-18 (LLGDFFRKSKEKIGKEFKRIVQRIKDFLRNLVPRTES)",chemotactic activity for CD4+ T cells,CD4+ T cells,exert chemotactic activity
same,histamine release,mast cells,shown to induce
same,intracellular calcium mobilization,mast cells,shown to induce
same,pulsing of human dendritic cells with MHC class I antigenic peptide,"[3]; FIG. 8a, 2.5 μg FL-[…] + 30 μg LL-37",to a significant extent
same,pulsing of human dendritic cells with MHC class II antigenic peptide,"[3]; FIG. 8b, 2.5 μg FL-[…] + 30 μg LL-37",to a significant extent
same,uptake of antigens in dendritic cells,"[3]; summary statement, cells of men",enhance the uptake of antigens
same,chemotactic activity for immature and mature dendritic cells,[4],no chemotactic activity
same,chemotactic activity for neutrophils,neutrophils,exert chemotactic activity
same,chemotaxis of peripheral blood monocytes,[5],induces chemotaxis
